From patent US7514452B2, “2-furancarboxylic acid hydrazides and pharmaceutical compositions containing the same” (Dainippon Pharmaceutical Co., Ltd, priority 2002, dated 2009)

Legend:
glucagon receptor [1] = target: glucagon receptor (Mus musculus, UniProt Q61606); assay: Experiment for glucagon binding inhibition, mouse hepatic membrane (125I-glucagon); conditions: male ddY mouse hepatic membrane, 125I-glucagon 50 pM, 25° C. for 30 minutes; read-out: Glucagon binding inhibitory activity IC50 (nM) Mouse
Sequence of glucagon receptor (Mus musculus, UniProt Q61606) (Q61606 27-485): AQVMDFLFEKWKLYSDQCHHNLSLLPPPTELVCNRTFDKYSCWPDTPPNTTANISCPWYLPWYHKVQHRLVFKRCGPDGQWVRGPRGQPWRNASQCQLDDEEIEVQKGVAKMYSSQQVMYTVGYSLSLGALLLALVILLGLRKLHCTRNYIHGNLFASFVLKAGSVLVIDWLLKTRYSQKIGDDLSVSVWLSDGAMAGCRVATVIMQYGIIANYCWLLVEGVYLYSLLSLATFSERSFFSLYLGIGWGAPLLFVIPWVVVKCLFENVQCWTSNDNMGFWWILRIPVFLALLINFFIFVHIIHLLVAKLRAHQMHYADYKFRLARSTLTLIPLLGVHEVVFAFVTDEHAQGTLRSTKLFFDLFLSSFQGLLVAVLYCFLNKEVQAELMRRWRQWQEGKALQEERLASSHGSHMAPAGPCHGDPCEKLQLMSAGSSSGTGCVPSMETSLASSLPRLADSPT
Procedure: (§1) The preparation of membrane from mouse and rat livers was carried out according to the method described in Bioorg. Med. Chem. Lett. 1992, 12, 915-918 in this experiment and ^125I-glucagon binding activity was measured with these membranes as glucagon receptor's samples. Livers were removed from male SD rats (about 250 g body weight per rat) and male ddY mice (about 30 g body weight per mouse). […] The homogenate was centrifuged for 15 minutes at 30,000×g. […] The precipitaion thus obtained was used as a hepatic membrane sample. […] The mixture was incubated at 25° C. for 30 minutes. […] The filter was washed 3 times with 50 mM Tris-HCl buffer (pH 7.2), and the radioactivity of the filter was measured by a γ counter (ARC-360, Aloka Co., Ltd.). […] Each experiment was carried out in duplicate. […] The concentration at 50% inhibition of binding (IC50) was calculated using a pseudo Hill plot.

glucagon receptor [2] = target: glucagon receptor (Rattus norvegicus, UniProt P30082); assay: Experiment for glucagon binding inhibition, rat hepatic membrane (125I-glucagon); conditions: male SD rat hepatic membrane, 125I-glucagon 50 pM, 25° C. for 30 minutes; read-out: Glucagon binding inhibitory activity IC50 (nM) Rat
Sequence of glucagon receptor (Rattus norvegicus, UniProt P30082) (P30082 27-485): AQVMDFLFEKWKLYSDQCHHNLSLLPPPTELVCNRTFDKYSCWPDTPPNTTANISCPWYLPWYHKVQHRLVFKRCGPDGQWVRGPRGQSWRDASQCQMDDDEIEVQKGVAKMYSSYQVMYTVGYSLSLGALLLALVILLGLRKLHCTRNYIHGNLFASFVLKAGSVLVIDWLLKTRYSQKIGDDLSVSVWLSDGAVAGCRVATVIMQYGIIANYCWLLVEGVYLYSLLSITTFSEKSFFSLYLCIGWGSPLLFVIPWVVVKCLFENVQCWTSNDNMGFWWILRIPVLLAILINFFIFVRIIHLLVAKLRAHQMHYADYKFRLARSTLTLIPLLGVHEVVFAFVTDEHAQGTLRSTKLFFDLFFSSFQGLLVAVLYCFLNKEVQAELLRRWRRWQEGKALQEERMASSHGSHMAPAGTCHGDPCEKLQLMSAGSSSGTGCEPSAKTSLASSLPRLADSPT
Procedure: as §1

SMILES	IC50 (glucagon receptor [1])	IC50 (glucagon receptor [2])	melting point
CS(=O)(=O)c1ccc(COc2cccc(-c3ccoc3C(=O)NNC(=O)c3ccc(O)c(C#N)c3)c2)cc1 [Example 136, 3-[3-(4-methylsulfonylbenzyloxy)phenyl]-2-furancarboxylic acid 2-(3-cyano-4-hydroxybenzoyl)hydrazide]	48 nM	96 nM	235 to 237 °C
CCCCc1ccc(-c2ccoc2C(=O)NNC(=O)c2ccc(O)c([N+](=O)[O-])c2)cc1 [Example 142, 3-(4-butylphenyl)-2-furancarboxylic acid 2-(4-hydroxy-3-nitrobenzoyl)hydrazide]	9.3 nM	5.5 nM	190 to 193 °C
O=C(NNC(=O)c1occc1-c1ccccc1)c1ccc(O)c([N+](=O)[O-])c1 [Example 143, 3-Phenyl-2-furancarboxylic acid 2-(4-hydroxy-3-nitrobenzoyl)hydrazide]	56 nM	89 nM	154 to 156 °C
Cc1cccc(-c2ccoc2C(=O)NNC(=O)c2ccc(O)c([N+](=O)[O-])c2)c1 [Example 145, 3-(3-Methylphenyl)-2-furancarboxylic acid 2-(4-hydroxy-3-nitrobenzoyl)hydrazide]	190 nM	100 nM	126 to 128 °C
Cc1ccc(-c2ccoc2C(=O)NNC(=O)c2ccc(O)c([N+](=O)[O-])c2)cc1 [Example 146, 3-(4-Methylphenyl)-2-furancarboxylic acid 2-(4-hydroxy-3-nitrobenzoyl)hydrazide]	38 nM	27 nM	180 to 182 °C
Cc1ccc(-c2ccoc2C(=O)NNC(=O)c2ccc(O)c([N+](=O)[O-])c2)cc1C [Example 150, 3-(3,4-Dimethylphenyl)-2-furancarboxylic acid 2-(4-hydroxy-3-nitrobenzoyl)hydrazide]	73 nM	90 nM	127 to 129 °C
CC(C)c1cccc(-c2ccoc2C(=O)NNC(=O)c2ccc(O)c([N+](=O)[O-])c2)c1 [Example 152, 3-(3-Isopropylphenyl)-2-furancarboxylic acid 2-(4-hydroxy-3-nitrobenzoyl)hydrazide]	250 nM	120 nM	182 to 183 °C
CC(C)c1ccc(-c2ccoc2C(=O)NNC(=O)c2ccc(O)c([N+](=O)[O-])c2)cc1 [Example 153, 3-(4-Isopropylphenyl)-2-furancarboxylic acid 2-(4-hydroxy-3-nitrobenzoyl)hydrazide]	18 nM	24 nM	194 to 196 °C
CCc1ccc(-c2ccoc2C(=O)NNC(=O)c2ccc(O)c([N+](=O)[O-])c2)cc1 [Example 156, 3-(4-Ethylphenyl)-2-furancarboxylic acid 2-(4-hydroxy-3-nitrobenzoyl)hydrazide]	45 nM	44 nM	189 to 191 °C
CCCCCCc1ccc(-c2ccoc2C(=O)NNC(=O)c2ccc(O)c([N+](=O)[O-])c2)cc1 [Example 158, 3-(4-Hexylphenyl)-2-furancarboxylic acid 2-(4-hydroxy-3-nitrobenzoyl)hydrazide]	7.1 nM	5.9 nM	144 to 146 °C
CCCCCOc1ccc(-c2ccoc2C(=O)NNC(=O)c2ccc(O)c([N+](=O)[O-])c2)cc1 [Example 159, 3-(4-Pentyloxyphenyl)-2-furancarboxylic acid 2-(4-hydroxy-3-nitrobenzoyl)hydrazide]	60 nM	31 nM	156 to 157 °C
CCCc1ccc(-c2ccoc2C(=O)NNC(=O)c2ccc(O)c([N+](=O)[O-])c2)cc1 [Example 160, 3-(4-Propylphenyl)-2-furancarboxylic acid 2-(4-hydroxy-3-nitrobenzoyl)hydrazide]	3.4 nM	2.9 nM	174 to 176 °C
CCCCOc1ccc(-c2ccoc2C(=O)NNC(=O)c2ccc(O)c([N+](=O)[O-])c2)cc1 [Example 161]	140 nM	100 nM	155 to 156 °C
